Measurements from patent US20250009731A1, “TOLL-LIKE RECEPTOR THERAPY COMBINATIONS WITH CBL-B INHIBITOR COMPOUNDS” (NURIX THERAPEUTICS, INC., priority 2021, published 2025).

Assays:
[1] = test system: total primary human T-cells; experiment: IL-2 and IFN-γ release by stimulated total primary human T-cells (ELISA); assay type: cell-based; details: plate bound anti-CD3, with and without CD28 co-stimulation, lesser degree without co-stimulation
Description: Cells were stimulated with plate bound anti-CD3 (right) or anti-CD3/anti-CD28 (left) in presence or absence of the indicated concentration of Compound 23. Release of IL-2 or IFN-γ were assessed by ELISA. Compound 23 inhibition of Cbl-b enhanced IL-2 and IFN-γ secretion in primary human T cells stimulated with anti-CD3 antibodies, in both the presence and absence of CD28 co-stimulation, although to a lesser degree in the absence of co-stimulation.

CT26 tumors [2] = experiment: CT26 colon carcinoma tumor model, tumor volume; assay type: in vivo, mice; details: oral 10 mg/kg or 30 mg/kg, Day 7 to Day 32; tumor volume at Day 25
Description: Mice bearing tumors on their left and right flanks were treated from Day 7 to Day 32 with oral Compound 23 at 10 mg/kg or 30 mg/kg or vehicle. Volumes at Day 25 are indicated. Statistics were calculated with one-way ANOVA and Dunn's multiple comparisons test ** P<0.01.

4T1 tumors [3] = experiment: 4T1 triple negative mammary carcinoma metastatic model with primary tumor resection, survival; assay type: in vivo, mice; details: oral 30 mg/kg daily
Source text: Another in vivo study evaluated the ability of Compound 23 treatment, started before the primary tumor resection, to eradicate 4T1 breast carcinoma metastatic disease. The 4T1 triple negative mammary carcinoma is a transplantable tumor cell line that is highly tumorigenic and invasive and, unlike most tumor models, spontaneously metastasizes from a primary tumor growing in the mammary gland to multiple distant sites including lymph nodes, blood, liver, lung, brain, and bone. Tumor cells are easily transplanted into the mammary glands so that the primary tumor grows in the anatomically relevant site. The progressive spread of 4T1 metastases to other organs is very similar to that of human mammary cancer. Animals die from disseminated metastatic disease regardless of resection of the primary tumor (Pulaski et al., 2000, Current Protocols in Immunology 39(1):20.2.1-20.2.16). […] Beginning on Day 7, tumor volumes were measured twice weekly until they reached a mean tumor volume of 145 mm^3 when the primary tumors were resected on Day 14 or 15 (dotted line). Median survival times were calculated for each group and body weights were monitored until the end of the study on Day 140. Body weights were measured twice weekly then once weekly starting Day 47. […] Statistical significance of differences in conditional survival between groups was evaluated using the Log-rank (Mantel-Cox) test. […] Median survival is reported as undefined for the Compound 23 group, as survival exceeds 50% at Day 140.

CT26 tumors [4] = experiment: nCounter Mouse PanCancer Immune Profiling Panel gene expression in CT26 tumors; assay type: in vivo, mice; details: vs vehicle
Source text: In this example, the gene expression changes induced in tumors from mice treated with Compound 23 studies were as investigated. To perform this assessment, the nCounter PanCancer Immune Profiling Panel was used, which is a multiplexed gene expression panel developed by NanoString Technologies that measures expression of 770 immune and cancer related genes (Eastel et al., 2019, Expert Review of Molecular Diagnostics, 19(7):591-598). This technology is a unique gene expression tool that covers many important features of the immune response in the tumor microenvironment and was used to facilitate the understanding of immune related changes in tumors treated with Compound 23.
In FIG. 4A, CT26 tumors were harvested after 4 doses and after 19 doses of Compound 23 or vehicle and gene expression was directly measured using the nCounter Mouse PanCancer Immune Profiling Panel. Analysis was performed using the nSolver 4.0 and the nCounter Advanced Analysis software comparing gene expression in Compound 23 to vehicle treated tumors. […] Statistical significance of differences in mean cell type scores between Compound 23 and vehicle treated groups was evaluated using Mann-Whitney test (* P≤0.05, ** P≤0.01, and *** P≤0.001).
(§1) In FIG. 4B, CT26 tumors were harvested after 4 treatment doses and gene expression was directly measured using the nCounter Mouse PanCancer Immune Profiling Panel. Analysis was performed using the nSolver 4.0 and the nCounter Advanced Analysis software comparing gene expression in Compound 23 to vehicle treated tumors. As indicated in the titles above each panel, scatter plots of individual Pathway Signature Scores of vehicle and Compound 23 treated tumors are shown. Statistical significance of differences in Pathway Signature Scores between Compound 23 and vehicle treated groups was evaluated using Mann-Whitney test (* P≤0.05, ** P≤0.01, and *** P≤0.001).
as §1, with “FIG. 4C,” for “FIG. 4B,”, “after 19” for “after 4”

CT26 tumors [5] = experiment: CT26 tumor model with depleting antibodies for CD4+, CD8+ or NK cells; assay type: in vivo, mice; details: 30 mg/kg PO QD Day 9 to Day 25; tumor volume at Day 25
Source text: Tumor volume at Day 25 is indicated. CD8+ T-cell or NK cell depletion abrogates Compound 23 activity. Stats calculated with Mann-Whitney (Vehicle vs. Compound 23) or one-way ANOVA with Dunn's multiple comparisons test (Compound 23 vs. Depletion groups); * P≤0.05, ** P≤0.01, **** P≤0.0001 The efficacy of Compound 23 on tumors is linked to CD8+ T function and on NK cell function.

4T1 tumors [6] = experiment: Flow cytometry of tumor and blood from orthotopic 4T1 tumor-bearing mice; assay type: in vivo
Source text: Tumor and blood samples were harvested on Day 28 and analyzed by Flow Cytometry.

CT26 tumors [7] = experiment: Flow cytometry of tumor-infiltrating immune cells in CT26 tumors; assay type: in vivo, mice; details: 30 mg/kg daily PO, 19 doses
Description: CT26 tumors were harvested after 19 doses of Compound 23 or vehicle and tumor-infiltrating immune cell density and phenotype was assessed by Flow Cytometry.

## C[C@H]1CCCN(Cc2cc3c(c(C(F)(F)F)c2)CN(c2cccc([C@]4(c5nncn5C)C[C@@H](C)C4)c2)C3=O)C1 [Compound 23]
[1]
  IFN-γ secretion: enhanced
  IL-2 secretion: enhanced
CT26 tumors [2]
  anti-tumor activity, CT26 colon carcinoma model: significant anti-tumor activity
4T1 tumors [3]
  survival at Day 140: exceeds 50%
4T1 tumors [3]; Day 8 to Day 46
  anti-tumor activity, metastatic triple negative breast tumor model 4T1: significant anti-tumor activity
4T1 tumors [3]; Day 8 to Day 46, primary tumor resected Day 14 or 15, Log-rank test
  median survival time compared to vehicle control: significantly increased
4T1 tumors [3]; Day 140
  mice that remained tumor free until the end of the study: 54%
4T1 tumors [3]; study end Day 140
  median survival: undefined
CT26 tumors [4]; after 4 doses, oral 30 mg/kg daily, P=0.1061
  cytotoxic cells score: clear trend of increased infiltration
CT26 tumors [4]; after 4 doses, oral 30 mg/kg daily, P=0.6679
  tumor infiltrating lymphocytes (TIL) score: clear trend of increased infiltration
CT26 tumors [4]; after 4 doses, oral 30 mg/kg daily, P=0.7551
  T-cell score: clear trend of increased infiltration
CT26 tumors [4]; after 4 doses
  pathway scores of innate immune signaling: dendritic cell function, macrophage function, chemokine receptors and pathways: significant gene expression changes
CT26 tumors [4]; after 4 doses, trend for increases
  pathway scores of T-cell, B cell, NK cell and adaptive immune function: not significant
CT26 tumors [4]; after 19 doses, oral, P=0.0002
  cytotoxic cell score: significant increases
CT26 tumors [4]; after 19 doses, oral, P=0.0044
  tumor infiltrating lymphocytes (TIL) score: significant increases
CT26 tumors [4]; after 19 doses, oral, P=0.0098
  T-cell score: significant increases
CT26 tumors [4]; after 19 doses
  immune related pathway scores: dendritic cell, macrophage, T-cell, NK cell, B cell, interferon function, adaptive immunity, chemokine and receptor, cytokine and receptor: significantly enhanced function
CT26 tumors [5]
  effect of CD8+ T-cell depletion on antitumor activity: abrogates
  effect of NK cell depletion (anti-asialo-GM1) on antitumor activity: abrogates
4T1 tumors [6]; 30 mg/kg daily PO Day 9 to Day 28, FIG. 6A
  frequency of tumor gp70 antigen-specific CD8+ T-cells (AH1 Dextramer+ CD8+ T-cells) in 4T1 tumors: increased
4T1 tumors [6]; 30 mg/kg daily PO Day 9 to Day 28, FIG. 6B
  frequency of gp70 antigen-specific CD8+ T-cells with exhaustion phenotype (PD-1+ LAG3+) in 4T1 tumors: decreased
4T1 tumors [6]; 30 mg/kg daily PO Day 9 to Day 28, FIG. 6C
  frequency of circulating CD8+ T-cells with activated phenotype (PD-1+) in blood: increased
4T1 tumors [6]; 30 mg/kg daily PO Day 9 to Day 28, FIG. 6D
  frequency of circulating CD8+ T-cells with memory phenotype (CD44+CD27+CD127+) in blood: increased
CT26 tumors [7]; FIG. 7A
  number of tumor-infiltrating leukocytes (TIL) per gram of tumor: increased
CT26 tumors [7]; FIG. 7B
  frequency of total CD3+ T cells as a percentage of CD45+ leukocytes: increased
CT26 tumors [7]; FIG. 7C
  frequency of total CD8+ T cells as a percentage of CD45+ leukocytes: increased
CT26 tumors [7]; FIG. 7D
  number of total CD8+ T-cells per gram of tumor: increased
CT26 tumors [7]; FIG. 7E
  frequency of CD8+ T-cells that express the activation marker CD29 (CD29+): increased
CT26 tumors [7]; FIG. 7F
  CD8+ T-cells to Tregs ratio: increased
CT26 tumors [7]; FIG. 7G
  CD8+ effector T-cells (PD1+) to Tregs ratio: increased
CT26 tumors [7]; FIG. 7H
  frequency of activated NK cells (CD11b+) that express Granzyme+: increased
CT26 tumors [7]; FIG. 7I
  frequency of activated NK cells (CD27+CD11 b+) that express Granzyme+: increased
